Assay [1] in a line: Antifungal activity against Candida utilis after 24 hrs by two fold serial dilution method. The conditions noted are these: Cyberlindnera jadinii. In kind it is functional.
Assay [2] concerns Candida albicans. Kind of assay: Antifungal activity against Candida albicans ATCC 76615 after 24 hrs by two fold serial dilution method. In kind it is functional. The conditions noted are these: ATCC 76615, 24 h.
The test system of assay [3] is Proteus vulgaris. Nature of the assay: Antibacterial activity against Bacillus proteus ATCC 13315 after 24 hrs by two fold serial dilution method. The conditions noted are these: ATCC 13315, 24 h. It is filed as functional.
Assay [4] relates to Staphylococcus aureus. Nature of the assay: Antibacterial activity against Staphylococcus aureus ATCC 25923 after 24 hrs by two fold serial dilution method. The conditions noted are these: ATCC 25923, 24 h. It is filed as functional.
In assay [5] the test system is Shigella dysenteriae. Kind of assay: Antibacterial activity against Shigella dysenteriae after 24 hrs by two fold serial dilution method. In kind it is functional.
For assay [6], the system named is Staphylococcus aureus. Nature of the assay: Antibacterial activity against methicillin-resistant Staphylococcus aureus N315 after 24 hrs by two fold serial dilution method. It is filed as functional. The note with it: N315, 24 h.
In assay [7] the test system is Saccharomyces cerevisiae. Kind of assay: Antifungal activity against Beer yeast after 24 hrs by two fold serial dilution method. In kind it is functional.
Assay [8] deals with Salmonella typhi. Kind of assay: Antibacterial activity against Bacillus typhi after 24 hrs by two fold serial dilution method. It is filed as functional, Salmonella enterica subsp. enterica serovar Typhi. The note with it: Salmonella enterica.
Assay [9] has as its system Escherichia coli. Kind of assay: Antibacterial activity against Escherichia coli JM109 after 24 hrs by two fold serial dilution method. In kind it is functional. The conditions noted are these: JM109, 24 h.
Assay [10] relates to Micrococcus luteus. Nature of the assay: Antibacterial activity against Micrococcus luteus ATCC 4698 after 24 hrs by two fold serial dilution method. In kind it is functional. The conditions noted are these: NCTC 2665, 24 h.
The test system of assay [11] is Bacillus spizizenii. Nature of the assay: Antibacterial activity against Bacillus subtilis ATCC 6633 after 24 hrs by two fold serial dilution method. It is filed as functional. The note with it: ATCC 6633, 24 h.
A short description of assay [12]: Antifungal activity against Candida mycoderma after 24 hrs by two fold serial dilution method. The note with it: Pichia norvegensis. It is filed as functional.
Assay [13] concerns Escherichia coli. Kind of assay: Antibacterial activity against Escherichia coli DH52 after 24 hrs by two fold serial dilution method. The conditions noted are these: DH52, 24 h. It is filed as functional.
Assay [14] relates to Aspergillus flavus. Nature of the assay: Antifungal activity against Aspergillus flavus after 24 hrs by two fold serial dilution method. It is filed as functional.
The test system of assay [15] is Pseudomonas aeruginosa. Nature of the assay: Antibacterial activity against Pseudomonas aeruginosa ATCC 27853 after 24 hrs by two fold serial dilution method. The note with it: ATCC 27853, 24 h. In kind it is functional.

The structures appear in SMILES notation. Converted amounts (≈) assume the structure as drawn.

Results on seven compounds are retold here after ChEMBL document CHEMBL3875175, “Multi-targeting exploration of new 2-aminothiazolyl quinolones: Synthesis, antimicrobial evaluation, interaction with DNA, combination with topoisomerase IV and penetrability into cells” (Eur J Med Chem, 2016).

Consider `Nc1ncc(-c2cn(Cc3cccc(Cl)c3)c3c(F)cc(F)cc3c2=O)s1`, for which the MIC80 – broadly, the lowest concentration that inhibits either 80% of growth or 80% of the strains tested, depending on the study – in assay [1] amounted to 256 µg/mL (≈ 634 µM); in [2], 128 µg/mL (≈ 317 µM); in [7] it was 64 µg/mL (≈ 158 µM); in assay [12], 64 µg/mL (≈ 158 µM); in assay [14], 64 µg/mL (≈ 158 µM). The MIC – broadly, the lowest concentration that inhibits growth of the organism – amounted to 256 µg/mL (≈ 634 µM) in assay [3]; 64 µg/mL (≈ 158 µM) in [4]; 128 µg/mL (≈ 317 µM) in assay [5]; 128 µg/mL (≈ 317 µM) in [6]; 32 µg/mL (≈ 79.2 µM) in assay [8]; 256 µg/mL (≈ 634 µM) in assay [9]. Besides, the MIC in assay [10] came to 128 µg/mL (≈ 317 µM); in assay [11] it was 256 µg/mL (≈ 634 µM); in assay [13], 32 µg/mL (≈ 79.2 µM); in [15], 64 µg/mL (≈ 158 µM).

As for `Nc1ncc(-c2cn(Cc3ccc([N+](=O)[O-])cc3)c3c(F)cc(F)cc3c2=O)s1`, the MIC80 in assay [1] worked out at 256 µg/mL (≈ 618 µM); in assay [2], 32 µg/mL (≈ 77.2 µM); in assay [7], 64 µg/mL (≈ 154 µM); in assay [12] it was 128 µg/mL (≈ 309 µM); in [14], 64 µg/mL (≈ 154 µM). Besides, the MIC in [3] turned out to be 128 µg/mL (≈ 309 µM); in assay [4], 256 µg/mL (≈ 618 µM); in assay [5] it was 256 µg/mL (≈ 618 µM); in assay [6] it was 128 µg/mL (≈ 309 µM); in assay [8], 64 µg/mL (≈ 154 µM); in [9], 128 µg/mL (≈ 309 µM). The MIC in assay [10] came out at 128 µg/mL (≈ 309 µM); in [11], 128 µg/mL (≈ 309 µM); in [13], 32 µg/mL (≈ 77.2 µM); in assay [15], 64 µg/mL (≈ 154 µM).

Regarding `COc1ccc(Cn2cc(-c3cnc(N)s3)c(=O)c3cc(F)cc(F)c32)cc1`, the MIC80 amounted to 512 µg/mL (≈ 1280 µM) in [1]; 256 µg/mL (≈ 641 µM) in assay [2]; 64 µg/mL (≈ 160 µM) in assay [7]; 256 µg/mL (≈ 641 µM) in assay [12]; 64 µg/mL (≈ 160 µM) in [14]. Further, the MIC in assay [3] is 256 µg/mL (≈ 641 µM); in [4], 256 µg/mL (≈ 641 µM); in [5] it was 128 µg/mL (≈ 320 µM); in assay [6], 256 µg/mL (≈ 641 µM); in [8], 64 µg/mL (≈ 160 µM); in [9], 128 µg/mL (≈ 320 µM). Besides, the MIC in [10] turned out to be 64 µg/mL (≈ 160 µM); in [11], 128 µg/mL (≈ 320 µM); in assay [13], 64 µg/mL (≈ 160 µM); in assay [15], 64 µg/mL (≈ 160 µM).

For the compound `Nc1ncc(-c2cn(Cc3cccc(F)c3)c3c(F)cc(F)cc3c2=O)s1`, the MIC80 in assay [1] turned out to be 64 µg/mL (≈ 165 µM); in assay [2], 64 µg/mL (≈ 165 µM); in assay [7], 64 µg/mL (≈ 165 µM); in [12] it was 32 µg/mL (≈ 82.6 µM); in [14], 64 µg/mL (≈ 165 µM). The MIC in [3] came to 32 µg/mL (≈ 82.6 µM); in assay [4] it was 64 µg/mL (≈ 165 µM); in assay [5], 64 µg/mL (≈ 165 µM); in assay [6], 32 µg/mL (≈ 82.6 µM); in assay [8], 32 µg/mL (≈ 82.6 µM); in assay [9] it was 128 µg/mL (≈ 330 µM). Also, the MIC came out at 128 µg/mL (≈ 330 µM) in [10], 128 µg/mL (≈ 330 µM) in assay [11], 128 µg/mL (≈ 330 µM) in assay [13] and 64 µg/mL (≈ 165 µM) in assay [15].

In the case of `Nc1ncc(-c2cn(Cc3ccccc3F)c3c(F)cc(F)cc3c2=O)s1`, the MIC80 was found to be 128 µg/mL (≈ 330 µM) in [1]; 64 µg/mL (≈ 165 µM) in [2]; 64 µg/mL (≈ 165 µM) in assay [7]; 64 µg/mL (≈ 165 µM) in [12]; 32 µg/mL (≈ 82.6 µM) in assay [14]. Also, the MIC stood at 128 µg/mL (≈ 330 µM) in assay [3]; 32 µg/mL (≈ 82.6 µM) in assay [4]; 32 µg/mL (≈ 82.6 µM) in [5]; 64 µg/mL (≈ 165 µM) in [6]; 8 µg/mL (≈ 20.7 µM) in assay [8]; 64 µg/mL (≈ 165 µM) in [9]. The MIC in assay [10] turned out to be 64 µg/mL (≈ 165 µM); in assay [11], 64 µg/mL (≈ 165 µM); in assay [13] it was 64 µg/mL (≈ 165 µM); in [15] it was 128 µg/mL (≈ 330 µM).

Take `Nc1ncc(-c2cn(Cc3ccc(Cl)cc3)c3c(F)cc(F)cc3c2=O)s1`: the MIC80 in assay [1] was 256 µg/mL (≈ 634 µM); in assay [2], 512 µg/mL (≈ 1270 µM); in [7], 128 µg/mL (≈ 317 µM); in [12], 256 µg/mL (≈ 634 µM); in assay [14], 64 µg/mL (≈ 158 µM). In addition, the MIC in [3] is 32 µg/mL (≈ 79.2 µM); in [4] it was 128 µg/mL (≈ 317 µM); in assay [5], 16 µg/mL (≈ 39.6 µM); in assay [6] it was 64 µg/mL (≈ 158 µM); in assay [8], 32 µg/mL (≈ 79.2 µM); in assay [9], 128 µg/mL (≈ 317 µM). Further, the MIC in assay [10] was 64 µg/mL (≈ 158 µM); in assay [11], 256 µg/mL (≈ 634 µM); in assay [13] it was 64 µg/mL (≈ 158 µM); in assay [15], 128 µg/mL (≈ 317 µM).

With `CCn1cc(C(=O)O)c(=O)c2cc(F)c(N3CCNCC3)cc21` [NORFLOXACIN], the MIC worked out at 8 µg/mL (≈ 25.1 µM) in assay [3]; 2 µg/mL (≈ 6.26 µM) in assay [4]; 16 µg/mL (≈ 50.1 µM) in [5]; 8 µg/mL (≈ 25.1 µM) in [6]; 4 µg/mL (≈ 12.5 µM) in assay [8]; 1 µg/mL (≈ 3.13 µM) in [9]. The MIC in [10] was found to be 2 µg/mL (≈ 6.26 µM); in assay [11] it was 4 µg/mL (≈ 12.5 µM); in assay [13], 1 µg/mL (≈ 3.13 µM); in assay [15], 16 µg/mL (≈ 50.1 µM).
